This is an account of results in patent US20250188618A1, “AMINO ACID DERIVATIVES AND SULFUR DERIVATIVES AS BIODEGRADABLE CORROSION INHIBITORS” (ChampionX LLC, priority 2023, published 2025).

Experiment [1] in a line: Bubble cell test, corrosion rate by linear polarization resistance (LPR). The settings on record: during 2 hour pre-corrode, prior to the addition of corrosion inhibitor; CO2 saturated 3% NaCl brine 80% / hydrocarbon oil 20%, 65° C. As for the experimental part:
The derivatized succinate corrosion inhibitors made according to Examples 1-5 were evaluated using bubble cell tests to assess corrosion performance using linear polarization resistance testing. The derivatized succinate corrosion inhibitors were combined with the sulfur synergist 2-mercaptoethanol in a solution so that the concentrations of corrosion inhibitor and 2-mercaptoethanol were 10% and 1% by weight, respectively. Methanol, isopropanol, water, and combinations thereof were used as solvents. Acids or bases were sometimes added either to form or neutralize salts of the inhibitors to influence their solubility. This solution was then dosed into the bubble cell at a concentration of 50 ppm, ultimately providing 5 ppm of corrosion inhibitor and 0.5 ppm of 2-mercaptoethanol. The bubble test simulates low flow areas where little or no mixing of water and oil occurs. The test was conducted using a mixed fluid composed of 80% by volume of synthetic brine composed of 3% sodium chloride and 20% of hydrocarbon oil.
The brine without inhibitor was first placed into kettles and purged with carbon dioxide for one hour resulting in carbon dioxide saturated brine. The brine was heated to 65° C., and electrodes were introduced into the de-aerated brine, followed by de-aerated oil, all of which was continually purged with carbon dioxide at 1 bar CO2 to saturate the brine for a 2 hour pre-corrode. The kettles were magnetically stirred at 100 revolutions per minute (rpm) for the duration of the test. The CO2 purge was switched to a blanket, the corrosion inhibitor solution was added, and the test timer started. Data were collected overnight for 15-hour test duration.
The corrosion rate was measured by Linear Polarization Resistance (LPR) techniques. The working electrode used was carbon steel (C1018 grade). The counter and reference electrodes were both Hastelloy. The electrodes were all cleaned and polished prior to testing. Corrosion rates were given in milli-inches per year (mpy), calculated from the current measured by LPR. Corrosion inhibition is compared to two known corrosion inhibitors: a cationic surfactant (alkylbenzyldimethylammonium chloride) and a Tall oil fatty acid (TOFA)-diethylenetriamine (DETA) imidazoline.
The bubble cell results provide a low shear screening designed for continuous application. The performance is measured as percent protection by comparing the initial corrosion rate during pre-corrode, prior to the addition of a corrosion inhibitor, to the final corrosion rate, measured 15 hours after corrosion inhibitor dosing.

A short description of experiment [2]: Wheel box testing, corrosion inhibition persistence for batch applications. Particulars: 1% corrosion inhibitor active in 3% NaCl, 60° C., saturated CO2 at 1 atm, 96 hour, average of 2 runs; inhibitor in neutral form. The protocol:
The corrosion inhibitors were tested using wheel box testing which is a screening method for measuring corrosion inhibition persistence for batch applications. Metal coupons are dip-coated in a solution of the inhibitor in neutral form (non-salt), then placed onto a wheel and immersed in corrosive solution. The wheel is rotated in the solution under desired conditions. At regular time intervals, the solution without inhibitor is replenished. At the conclusion of the test, corrosion rates are measured as a function of the mass loss of the metal coupons.

Regarding “2-(carboxymethylthio)succinic acid, iso-C11-14-alkyl ester, monosodium salt [Example 7]”, the “Initial corrosion rate (mpy)” value in experiment [1] is 160.1 mpy. Regarding “2-sulfosuccinic acid, iso-C11-14-alkyl ester, disodium salt [Example 6]”, the “Initial corrosion rate (mpy)” value in experiment [1] worked out at 186.9 mpy. Take “6,9-dioxa-3,12-diazatetradecane-1,2,13,14-tetracarboxylic acid, dioleyl ester [Example 10]”: the “Wheel-Box, % Inhibition” value in experiment [2] is on record as 42%. Moreover, the “Initial corrosion rate (mpy)” value in experiment [1] is 157.2 mpy. On to `CCCCCCCC/C=C\CCCCCCCCN[C@@H](CC(=O)O)C(=O)[O-].[K+]` [Example 5, N-(oleyl)aspartic acid, monopotassium salt], for which the “Initial corrosion rate (mpy)” value in experiment [1] was 103.3 mpy. On the same count and under the same terms, next, `CCCCCCCCCCCCSC(CC(=O)O)C(=O)[O-].[Na+]` (centres unmarked) [Example 8, 2-(dodecylthio)succinic acid, monosodium salt]: 137.2 mpy.

On to `CCCCCCCCCCCCOC(=O)CC1NCCN(CCN)C1=O` (centres unmarked) [Example 9, (4-(2-aminoethyl)-3-oxo-2-piperazinyl)acetic acid, dodecyl ester], for which, in experiment [1], the “Initial corrosion rate (mpy)” value was determined as 204.3 mpy. Consider “N-(2-ethylhexyl)aspartic acid, 2-ethylhexyl ester [Example 3]”, for which the “Wheel-Box, % Inhibition” value in experiment [2] was determined as 56%. For the same molecule, in experiment [1], the “Initial corrosion rate (mpy)” value was 248.8 mpy. For the molecule “N-(2-ethylhexyl)aspartic acid, C12-15-alkyl ester [Example 1]”, the “Initial corrosion rate (mpy)” value in experiment [1] is on record as 245.7 mpy. Consider “N-(oleyl)aspartic acid, 2-ethylhexyl ester [Example 4]”, for which the “Wheel-Box, % Inhibition” value in experiment [2] stood at 64%. Also, the “Initial corrosion rate (mpy)” value in experiment [1] is on record as 213.0 mpy. Take “N-oleylaspartic acid, iso-C11-14-alkyl ester [Example 2]”: the “Initial corrosion rate (mpy)” value in experiment [1] was 252.4 mpy.

On to “alkylbenzyldimethylammonium chloride [Cationic surfactant control, reference compound]”, for which, in experiment [1], the “Initial corrosion rate (mpy)” value came to 233.4 mpy.
